Measured values as given in ChEMBL document CHEMBL1201862, “PubChem BioAssay data set” (2004).
Calls of active or inactive are those of the source.

Experiments:
[1] = target: T1, Cysteine protease ATG4B (Homo sapiens, UniProt Q9Y4P1); type: functional;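 note: Fluorescence-based dose-response confirmation assay measuring inhibition of ATG4B activity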
T1 sequence (Q9Y4P1 whole entry): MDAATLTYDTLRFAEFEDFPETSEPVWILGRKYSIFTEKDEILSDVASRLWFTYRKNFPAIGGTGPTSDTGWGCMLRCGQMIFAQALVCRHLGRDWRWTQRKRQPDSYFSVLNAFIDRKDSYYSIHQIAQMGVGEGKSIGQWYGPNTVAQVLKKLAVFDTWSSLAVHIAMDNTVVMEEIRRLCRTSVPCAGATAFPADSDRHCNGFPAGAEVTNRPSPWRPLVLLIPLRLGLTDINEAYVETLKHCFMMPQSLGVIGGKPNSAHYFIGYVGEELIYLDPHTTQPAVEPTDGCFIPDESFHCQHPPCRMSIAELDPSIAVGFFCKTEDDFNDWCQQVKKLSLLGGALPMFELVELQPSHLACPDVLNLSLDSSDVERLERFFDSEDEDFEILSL

[2] = target: Phospholipase A2 (Homo sapiens, UniProt P04054); type: functional;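 note: confirmatory dose-response counterscreen on phospholipase A2, testing hits that came from an ultra-high-throughput screen for ATG4B inhibitors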
Sequence of Phospholipase A2 (P04054 whole entry): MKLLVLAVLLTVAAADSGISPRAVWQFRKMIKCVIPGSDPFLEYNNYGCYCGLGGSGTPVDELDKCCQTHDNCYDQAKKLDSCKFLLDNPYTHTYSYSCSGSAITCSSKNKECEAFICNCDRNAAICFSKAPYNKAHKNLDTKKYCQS

[3] = test system: HEK293; test: EBV LMP1 TES2 canonical NF-kB signalling blockers – cell-based, HEK293, luciferase, cherry-pick, dose response (AID 588343); type: functional; details: Homo sapiens
[4] = viability loss in HeLa cells – cytotoxicity control for MgcRacGAP inhibitor project, dose response (AID 624300); type: functional
[5] = target: T2, Rac GTPase-activating protein 1 (Homo sapiens, UniProt Q9H0H5); test: blockers of MgcRacGAP-driven Rac1 GTP hydrolysis – biochemical, ADP Hunter fluorescence, primary and confirmatory, confirmation (AID 624330); type: functional
T2 sequence (Q9H0H5 whole entry): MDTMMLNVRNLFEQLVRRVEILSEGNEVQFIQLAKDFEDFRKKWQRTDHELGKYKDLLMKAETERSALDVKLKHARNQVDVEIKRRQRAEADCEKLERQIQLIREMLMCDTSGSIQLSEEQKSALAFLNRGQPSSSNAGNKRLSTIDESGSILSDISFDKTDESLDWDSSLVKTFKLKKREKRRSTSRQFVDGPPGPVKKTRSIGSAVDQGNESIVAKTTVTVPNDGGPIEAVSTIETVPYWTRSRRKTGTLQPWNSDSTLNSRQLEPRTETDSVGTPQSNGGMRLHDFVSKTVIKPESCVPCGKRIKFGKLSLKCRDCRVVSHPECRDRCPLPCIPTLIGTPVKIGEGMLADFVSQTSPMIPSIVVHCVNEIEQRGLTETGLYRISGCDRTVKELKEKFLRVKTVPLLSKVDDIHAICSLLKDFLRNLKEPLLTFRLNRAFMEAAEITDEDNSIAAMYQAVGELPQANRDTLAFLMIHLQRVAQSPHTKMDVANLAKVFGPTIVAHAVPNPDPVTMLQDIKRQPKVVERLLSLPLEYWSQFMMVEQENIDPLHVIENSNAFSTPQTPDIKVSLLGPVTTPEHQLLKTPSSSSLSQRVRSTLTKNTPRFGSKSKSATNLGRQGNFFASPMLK

[6] = target: T3, Mitochondrial peptide methionine sulfoxide reductase (Bos taurus, UniProt P54149); test: Absorbance-based biochemical high throughput dose response assay for activators of Methionine sulfoxide reductase A (MsrA).; type: functional
T3 sequence (P54149 whole entry): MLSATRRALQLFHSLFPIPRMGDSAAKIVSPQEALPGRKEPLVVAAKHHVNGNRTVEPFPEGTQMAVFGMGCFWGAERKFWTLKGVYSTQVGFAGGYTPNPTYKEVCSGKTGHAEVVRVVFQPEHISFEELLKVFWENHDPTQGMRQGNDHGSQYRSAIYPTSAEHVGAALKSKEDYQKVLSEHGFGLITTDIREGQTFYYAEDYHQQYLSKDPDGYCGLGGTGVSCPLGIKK

[7] = target: Cytochrome P450 2D6 (Homo sapiens, UniProt P10635);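 note: CYP2D6 member of a cytochrome P450 panel assay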
Sequence of Cytochrome P450 2D6 (P10635 whole entry): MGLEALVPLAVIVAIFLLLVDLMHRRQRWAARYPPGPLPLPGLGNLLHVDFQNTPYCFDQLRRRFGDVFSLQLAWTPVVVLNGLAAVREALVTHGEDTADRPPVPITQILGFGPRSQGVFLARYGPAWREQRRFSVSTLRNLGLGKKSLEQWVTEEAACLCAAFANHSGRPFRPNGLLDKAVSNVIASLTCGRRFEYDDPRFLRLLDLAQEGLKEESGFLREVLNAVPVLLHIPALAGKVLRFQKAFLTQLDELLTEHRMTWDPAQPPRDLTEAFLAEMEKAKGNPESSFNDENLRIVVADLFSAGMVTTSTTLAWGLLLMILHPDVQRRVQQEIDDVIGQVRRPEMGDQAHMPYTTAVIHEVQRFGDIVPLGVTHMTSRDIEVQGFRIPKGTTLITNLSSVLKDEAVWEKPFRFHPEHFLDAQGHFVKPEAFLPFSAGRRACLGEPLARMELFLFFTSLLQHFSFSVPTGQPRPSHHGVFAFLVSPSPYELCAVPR

[8] = target: Cytochrome P450 3A4 (Homo sapiens, UniProt P08684);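 note: CYP3A4 tested as one member of a cytochrome P450 panel screen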
Sequence of Cytochrome P450 3A4 (P08684 whole entry): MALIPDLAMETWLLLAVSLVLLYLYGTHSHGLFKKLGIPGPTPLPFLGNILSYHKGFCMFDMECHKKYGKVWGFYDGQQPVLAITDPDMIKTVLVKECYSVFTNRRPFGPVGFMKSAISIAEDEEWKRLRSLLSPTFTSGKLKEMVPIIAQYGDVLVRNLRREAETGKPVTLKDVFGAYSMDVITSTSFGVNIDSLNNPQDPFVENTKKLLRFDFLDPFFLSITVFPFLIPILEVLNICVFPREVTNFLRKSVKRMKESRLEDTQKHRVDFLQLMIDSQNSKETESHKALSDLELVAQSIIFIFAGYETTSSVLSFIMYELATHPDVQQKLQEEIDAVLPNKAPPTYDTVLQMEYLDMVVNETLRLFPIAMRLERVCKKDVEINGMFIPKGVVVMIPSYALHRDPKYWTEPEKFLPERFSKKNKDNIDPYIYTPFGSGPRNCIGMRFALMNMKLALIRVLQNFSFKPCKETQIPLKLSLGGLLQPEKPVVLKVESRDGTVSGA

[9] = target: Cytochrome P450 2C9 (Homo sapiens, UniProt P11712)
Sequence of Cytochrome P450 2C9 (P11712 whole entry): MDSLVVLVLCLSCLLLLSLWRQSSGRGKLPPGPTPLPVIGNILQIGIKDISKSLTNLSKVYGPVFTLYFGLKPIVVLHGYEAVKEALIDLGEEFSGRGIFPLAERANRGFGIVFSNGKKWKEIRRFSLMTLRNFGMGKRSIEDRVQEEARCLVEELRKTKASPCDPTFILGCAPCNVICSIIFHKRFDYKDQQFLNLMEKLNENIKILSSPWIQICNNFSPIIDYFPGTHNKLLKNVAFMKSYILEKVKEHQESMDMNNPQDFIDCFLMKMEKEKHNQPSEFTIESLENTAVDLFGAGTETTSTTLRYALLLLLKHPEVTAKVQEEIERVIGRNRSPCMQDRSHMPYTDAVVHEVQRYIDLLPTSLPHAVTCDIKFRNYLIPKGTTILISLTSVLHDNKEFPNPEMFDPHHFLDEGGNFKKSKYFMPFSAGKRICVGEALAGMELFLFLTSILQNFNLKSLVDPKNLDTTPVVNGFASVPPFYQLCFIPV

[10] = target: T4, Low molecular weight phosphotyrosine protein phosphatase (Homo sapiens, UniProt P24666); type: functional; details: read-out: IC50_Mean;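 note: Dose-response confirmation assay measuring inhibition of LMPTP enzyme activity by fluorescence intensity read-out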
T4 sequence (P24666 whole entry): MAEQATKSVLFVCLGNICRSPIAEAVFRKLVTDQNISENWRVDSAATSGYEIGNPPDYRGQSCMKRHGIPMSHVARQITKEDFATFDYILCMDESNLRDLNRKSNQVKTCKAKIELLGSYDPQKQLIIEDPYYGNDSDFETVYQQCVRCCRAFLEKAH

[11] = target: Voltage-dependent T-type calcium channel subunit alpha-1H (Homo sapiens, UniProt O95180); type: functional;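 note: channel activity triggered by adding a high calcium stimulation buffer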
[12] = target: Peroxisome proliferator-activated receptor gamma/Nuclear receptor coactivator 2 (Homo sapiens, UniProt P37231); type: functional;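 note: agonist potency for raising coactivator recruitment to the receptor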
[13] = target: Peroxisome proliferator-activated receptor gamma/Nuclear receptor coactivator 1 (Homo sapiens, UniProt P37231); type: functional;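 note: agonist potency as compounds enhance coactivator SRC-1 recruitment to PPARgamma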
Sequence of Peroxisome proliferator-activated receptor gamma/Nuclear receptor coactivator 1 (P37231 whole entry): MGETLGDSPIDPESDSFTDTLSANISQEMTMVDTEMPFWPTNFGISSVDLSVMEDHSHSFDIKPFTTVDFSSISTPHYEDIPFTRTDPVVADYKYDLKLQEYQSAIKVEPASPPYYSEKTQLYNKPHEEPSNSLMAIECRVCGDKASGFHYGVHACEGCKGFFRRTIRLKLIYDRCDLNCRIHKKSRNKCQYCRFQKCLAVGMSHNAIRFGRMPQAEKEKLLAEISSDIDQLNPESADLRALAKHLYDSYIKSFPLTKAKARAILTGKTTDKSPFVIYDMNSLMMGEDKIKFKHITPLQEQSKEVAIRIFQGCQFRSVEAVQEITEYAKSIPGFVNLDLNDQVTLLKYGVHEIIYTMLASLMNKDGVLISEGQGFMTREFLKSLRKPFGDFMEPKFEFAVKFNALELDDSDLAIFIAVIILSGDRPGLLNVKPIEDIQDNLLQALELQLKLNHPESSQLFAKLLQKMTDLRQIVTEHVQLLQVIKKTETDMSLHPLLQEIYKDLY
Sequence of Peroxisome proliferator-activated receptor gamma/Nuclear receptor coactivator 1 (Q15788 whole entry, further chain): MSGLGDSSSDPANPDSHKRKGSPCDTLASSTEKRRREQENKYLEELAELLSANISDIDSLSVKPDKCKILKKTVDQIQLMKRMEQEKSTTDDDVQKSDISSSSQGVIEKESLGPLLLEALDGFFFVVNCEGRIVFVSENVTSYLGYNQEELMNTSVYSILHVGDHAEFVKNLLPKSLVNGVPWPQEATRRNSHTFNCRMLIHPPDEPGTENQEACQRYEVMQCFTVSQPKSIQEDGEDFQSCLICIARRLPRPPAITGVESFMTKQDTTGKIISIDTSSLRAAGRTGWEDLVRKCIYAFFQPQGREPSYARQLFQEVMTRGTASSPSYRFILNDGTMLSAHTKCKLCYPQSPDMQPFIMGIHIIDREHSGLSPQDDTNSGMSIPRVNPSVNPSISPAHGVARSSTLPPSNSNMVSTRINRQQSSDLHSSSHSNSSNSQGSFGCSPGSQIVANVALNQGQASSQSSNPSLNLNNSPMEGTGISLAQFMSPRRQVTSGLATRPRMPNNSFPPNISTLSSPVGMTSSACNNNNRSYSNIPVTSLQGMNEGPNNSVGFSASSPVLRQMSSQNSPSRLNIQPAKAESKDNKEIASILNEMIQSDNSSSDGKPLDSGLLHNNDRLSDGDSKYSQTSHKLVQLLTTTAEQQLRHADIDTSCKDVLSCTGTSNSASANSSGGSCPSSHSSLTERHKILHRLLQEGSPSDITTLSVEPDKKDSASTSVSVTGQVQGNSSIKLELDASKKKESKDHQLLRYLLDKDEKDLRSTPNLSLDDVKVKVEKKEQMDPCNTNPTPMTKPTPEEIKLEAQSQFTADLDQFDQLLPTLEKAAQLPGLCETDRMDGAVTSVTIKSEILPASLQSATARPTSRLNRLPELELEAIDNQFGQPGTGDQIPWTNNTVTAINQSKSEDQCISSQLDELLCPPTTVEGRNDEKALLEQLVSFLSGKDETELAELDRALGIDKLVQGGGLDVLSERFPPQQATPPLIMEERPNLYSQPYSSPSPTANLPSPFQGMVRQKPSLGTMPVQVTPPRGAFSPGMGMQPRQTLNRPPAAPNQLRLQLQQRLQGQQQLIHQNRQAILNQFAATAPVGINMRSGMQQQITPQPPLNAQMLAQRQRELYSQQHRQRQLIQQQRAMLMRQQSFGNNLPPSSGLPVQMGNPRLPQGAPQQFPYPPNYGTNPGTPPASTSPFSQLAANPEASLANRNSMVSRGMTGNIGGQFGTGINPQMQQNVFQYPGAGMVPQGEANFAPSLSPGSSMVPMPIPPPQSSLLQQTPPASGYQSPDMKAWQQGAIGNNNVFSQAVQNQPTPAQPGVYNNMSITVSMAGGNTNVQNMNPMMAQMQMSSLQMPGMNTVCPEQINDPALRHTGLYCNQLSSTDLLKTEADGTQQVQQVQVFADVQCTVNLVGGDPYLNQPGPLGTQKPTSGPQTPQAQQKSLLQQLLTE

[14] = target: Peroxisome proliferator-activated receptor gamma/Nuclear receptor coactivator 3 (Homo sapiens, UniProt P37231); type: functional;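 note: agonist potency for raising coactivator recruitment to the receptor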
[15] = viability of PTEN-deleted HCT116 cells – cell-based, HCT116 PTEN knockout, dose response (AID 1047); type: functional;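 note: HCT116 colon tumor cells with PTEN knocked out; cells exposed to compound for 60 hours before readout; potency for loss of cell viability measured by luminescence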
[16] = viability of HCT116 lacking mutant beta-catenin – cell-based, human colon tumor, dose response (AID 1045); type: functional;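 note: HCT116 colon tumor cells with beta catenin knocked out; cells exposed to compound for 60 hours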
[17] = target: T5, Cytochrome P450 1A2 (Homo sapiens, UniProt P05177);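 note: PubChem cytochrome P450 panel assay, CYP1A2 panel member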
T5 sequence (P05177 whole entry): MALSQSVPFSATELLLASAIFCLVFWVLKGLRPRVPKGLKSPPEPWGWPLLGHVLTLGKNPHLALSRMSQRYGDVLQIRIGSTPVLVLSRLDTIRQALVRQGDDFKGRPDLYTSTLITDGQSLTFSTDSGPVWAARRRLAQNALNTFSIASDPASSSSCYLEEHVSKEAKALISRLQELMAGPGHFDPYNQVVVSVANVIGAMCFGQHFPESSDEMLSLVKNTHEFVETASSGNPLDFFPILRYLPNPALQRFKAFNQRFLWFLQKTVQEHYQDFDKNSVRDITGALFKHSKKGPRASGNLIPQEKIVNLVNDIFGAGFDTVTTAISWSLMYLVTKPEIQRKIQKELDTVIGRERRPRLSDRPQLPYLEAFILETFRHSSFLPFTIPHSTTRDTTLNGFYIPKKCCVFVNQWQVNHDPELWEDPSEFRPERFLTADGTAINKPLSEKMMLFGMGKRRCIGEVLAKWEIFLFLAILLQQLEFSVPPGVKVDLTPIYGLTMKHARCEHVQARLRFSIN

[18] = test system: BJ; test: BJ-TERT fibroblast viability loss – cell-based, RAS-independent, luminescence, dose response (AID 1933); type: functional; details: Homo sapiens
[19] = test system: BJ; test: cells; type: functional, cell-based; details: Homo sapiens
[20] = target: Luciferin 4-monooxygenase (Photinus pyralis, UniProt P08659); test: inhibition of purified Photinus pyralis luciferase – biochemical, luminescence, dose response (AID 1891)
Sequence of Luciferin 4-monooxygenase (P08659 whole entry): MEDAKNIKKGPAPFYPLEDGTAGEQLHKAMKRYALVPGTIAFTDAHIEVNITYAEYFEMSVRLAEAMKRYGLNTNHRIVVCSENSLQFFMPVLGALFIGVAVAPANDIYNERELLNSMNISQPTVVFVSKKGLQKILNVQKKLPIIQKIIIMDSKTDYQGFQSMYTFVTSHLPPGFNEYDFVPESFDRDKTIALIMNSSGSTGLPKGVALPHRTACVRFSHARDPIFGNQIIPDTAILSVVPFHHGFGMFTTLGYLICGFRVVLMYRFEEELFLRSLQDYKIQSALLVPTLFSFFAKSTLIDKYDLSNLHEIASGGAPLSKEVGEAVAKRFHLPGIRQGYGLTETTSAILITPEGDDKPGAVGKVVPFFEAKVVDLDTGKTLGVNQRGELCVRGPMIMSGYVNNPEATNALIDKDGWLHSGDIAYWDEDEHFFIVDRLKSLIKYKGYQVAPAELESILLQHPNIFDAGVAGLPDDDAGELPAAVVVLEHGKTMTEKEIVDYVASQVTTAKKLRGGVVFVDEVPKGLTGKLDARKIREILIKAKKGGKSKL

[21] = Luminescence Cell-Based Dose Confirmation HTS to Identify Inhibitors of Platelet Dense Granule Release. [Related pubchem assays: 1663 (Primary HTS), 1678 (Summary of Project)]; type: functional
[22] = test system: BJ; test: BJ-TERT-LT-ST fibroblast viability loss – cell-based, RAS-independent, luminescence, dose response (AID 1935); type: functional; details: Homo sapiens;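 note: BJ fibroblasts immortalized with TERT plus LT and ST oncogenes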
[23] = DRD fibroblast viability loss – cell-based, non-viral oncogenic, luminescence, dose response (AID 1934); type: functional; details: Homo sapiens
[24] = luciferase reporter signal suppression in cells – H4 neuroglioma cells, luminescence, dose response (AID 1990); type: functional, cell-based
[25] = decrease of insulin promoter-GFP reporter – imaging, high-content screening, mouse beta cells (AID 1628); type: functional; details: MIN6
[26] = Luminescence Cell-Based Dose Response HTS to Identify Inhibitors of 5'UTR Stem-Loop Driven Prion Protein mRNA Translation in H4 Neuroglioblastoma Cells. [Related pubchem assays: 1827 (Project Summary), 1813 (Primary HTS)]; type: functional
[27] = MIN6 cell viability loss – mouse insulinoma, cytotoxicity control, dose response (AID 2122); type: functional;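 note: confirmatory high-throughput counterscreen run to flag cytotoxic compounds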
[28] = alpha-synuclein stem-loop luciferase translation blockers – H4 neuroglioma cells, luminescence, confirmation (AID 1988); type: functional, cell-based
[29] = Trypanosoma cruzi growth suppression in host cells – NIH3T3 host cells, beta-gal luminescence, confirmation (AID 2044); type: functional, cell-based;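 note: intracellular parasites grown in NIH/3T3 mouse fibroblasts as host cells; luminescent beta-galactosidase reporter signal from transgenic T. cruzi replicating inside host cells; inhibitors lower the luminescence signal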
[30] = NIH3T3 cell viability loss – ATP luminescence, mouse fibroblasts, counter-screen, dose response (AID 2010); type: functional, cell-based;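 note: cells exposed to compound for about 90 hours before reading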
[31] = test system: Vero; test: viability of Vero cells under compound – cytotoxicity control for flavivirus capping enzyme inhibitors (AID 588742); type: functional; details: Chlorocebus sabaeus
[32] = target: Genome polyprotein (dengue virus type 2, UniProt P29990); test: flavivirus cap methylation enzyme inhibition – biochemical, confirmation dose response, primary screen (AID 588689); type: functional
[33] = target: T6, Polyadenylate-binding protein 1 (Homo sapiens, UniProt P11940); test: MLLE binding blockers, Cy5 peptide tracer – biochemical, fluorescence polarization, Cy5-PAM2 peptide, secondary, miRNA deadenylation inhibitor project, dose response (AID 602260); type: functional; details: read-out: IC50_Mean
T6 sequence (P11940 whole entry, the tested form may be a part): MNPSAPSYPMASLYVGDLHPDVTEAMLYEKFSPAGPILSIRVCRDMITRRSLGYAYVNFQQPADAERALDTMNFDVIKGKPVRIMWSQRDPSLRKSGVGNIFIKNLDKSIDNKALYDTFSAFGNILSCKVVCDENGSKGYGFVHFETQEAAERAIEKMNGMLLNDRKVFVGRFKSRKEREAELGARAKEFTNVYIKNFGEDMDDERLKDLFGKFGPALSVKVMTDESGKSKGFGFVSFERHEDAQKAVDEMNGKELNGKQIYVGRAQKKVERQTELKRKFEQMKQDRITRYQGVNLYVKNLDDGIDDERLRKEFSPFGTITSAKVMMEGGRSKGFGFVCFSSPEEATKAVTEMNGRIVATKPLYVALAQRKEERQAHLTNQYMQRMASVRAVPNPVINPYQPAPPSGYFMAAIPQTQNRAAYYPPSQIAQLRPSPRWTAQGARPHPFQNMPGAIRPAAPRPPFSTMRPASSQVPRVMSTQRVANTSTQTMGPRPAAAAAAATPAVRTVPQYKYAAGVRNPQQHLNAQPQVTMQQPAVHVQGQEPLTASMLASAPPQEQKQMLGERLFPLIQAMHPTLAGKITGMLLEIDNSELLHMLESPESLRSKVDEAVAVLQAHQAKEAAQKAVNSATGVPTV

[34] = target: T6, Polyadenylate-binding protein 1; test: MLLE domain peptide-binding blockers, IC50 – biochemical, fluorescence polarization, FITC-PAM2 peptide, dose response (AID 602259); type: functional; details: read-out: IC50_Mean
[35] = test system: Streptococcus sp. 'group A'; test: Streptococcus pyogenes SK(-)GAS viability under kanamycin – luminescence, BacTiterGlo, confirmation, counter-screen for streptokinase expression inhibitor project, dose response (AID 1900); type: functional, organism-based
[36] = test system: Streptococcus; test: GAS UMAA2166 growth inhibition – luminescence, BacTiterGlo, counter-screen for streptokinase expression inhibitor project, dose response (AID 1915); type: functional, organism-based;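 note: potency for reduction of bacterial viability or growth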
[37] = target: T7, CAAX prenyl protease 2 (Homo sapiens, UniProt Q9Y256); test: inhibition of Ras-converting CAAX protease Rce1 – biochemical, yeast membranes, quenched-peptide fluorescence, cherry-pick, dose response (AID 588849)
T7 sequence (Q9Y256 whole entry): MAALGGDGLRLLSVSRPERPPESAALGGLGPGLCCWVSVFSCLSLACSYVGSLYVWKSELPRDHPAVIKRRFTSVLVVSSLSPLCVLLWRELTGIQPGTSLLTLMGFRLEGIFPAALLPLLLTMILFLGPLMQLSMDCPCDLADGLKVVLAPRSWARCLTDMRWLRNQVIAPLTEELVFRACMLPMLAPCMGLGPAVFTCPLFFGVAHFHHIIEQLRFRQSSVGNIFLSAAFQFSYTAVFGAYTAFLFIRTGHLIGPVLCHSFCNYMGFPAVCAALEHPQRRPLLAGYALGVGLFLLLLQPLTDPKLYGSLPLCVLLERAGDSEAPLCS

## CC1(C)Cc2c(sc(NC(=S)NC(=O)c3ccccc3)c2C(=O)O)CO1
[1]
  IC50: 21.1 µM (inactive)
[2]
  IC50: 13.1 µM (active)

## c1ccc(CCCN2CCN(CCOC(c3ccccc3)c3ccccc3)CC2)cc1
[3]
  AC50: 23.8 µM (active)

## CCN(CC)c1ccc(Nc2nc(Cl)ncc2Br)cc1
[4]
  CC50: 100 µM (active)
[5]
  IC50: 50.3 µM (active)

## CC(C)COC(=O)c1ccc(N2C(=O)c3ccccc3C2=O)cc1
[1]
  IC50: 16.2 µM (active)
[2]
  IC50: 66.5 µM (inactive)
[6]
  EC50: > 104 µM (inactive)

## COc1ccc(C2=NOC(C(=O)N3CCCc4ccccc43)C2)cc1 (centres undefined)
[7]
  AC50: 20 µM (inconclusive)
[8]
  AC50: 12.6 µM (inconclusive)
[9]
  AC50: inconclusive

## Cc1cc(N2CCN(c3nc(-c4ccccc4)cs3)CC2)c2ccccc2n1
[10]
  IC50: 9.27 µM (active)

## CCn1cc(C(=O)O)c(=O)c2cc(F)c(N3CCN(C(=S)Nc4ccc(OC)cc4)CC3)cc21
[10]
  IC50: 73.8 µM (inactive)

## CC(C)Oc1ccc(C(CC(=O)NCc2ccco2)c2ccccc2)cc1 (centres undefined)
[11]
  EC50: 4.77 µM (active)
[1]
  IC50: 16.4 µM (active)
[2]
  IC50: 11.6 µM (active)

## COCCCNC(=O)C1CCN(S(=O)(=O)N(CC(C)C)CC(C)C)CC1
[8]
  AC50: 22.4 µM (inconclusive)
[9]
  AC50: inconclusive

## CCOc1ccc(-c2nn(-c3ccccc3)cc2/C=C2\SC(N)=NC2=O)cc1C
[12]
  EC50: > 79.4 µM (not active)
[13]
  EC50: > 79.4 µM (not active)
[14]
  EC50: > 79.4 µM (not active)
[15]
  EC50: 8.6 µM (active)
[16]
  EC50: 8.58 µM (active)
[17]
  AC50: 15.8 µM (inconclusive)
[9]
  AC50: inconclusive

## CCOC(=O)c1c(C)c(C(=O)N2CCCCCC2)c(C)n1C
[17]
  AC50: 25.1 µM (inconclusive)
[9]
  AC50: inconclusive

## O=C(CCCN1C(=O)C(=Cc2ccc3c(c2)OCO3)SC1=S)Nc1ccc(C(=O)O)c(O)c1
[10]
  IC50: 80 µM (inactive)

## Cn1c(/C=C/c2ccccc2)nc2ccccc21
[18]
  EC50: 10.8 µM (active)
[19]
  EC50: 7.95 µM (active)
[20]
  EC50: 1.09 µM (active)
[21]
  EC50: 1.89 µM (active)
[22]
  EC50: 18.9 µM (active)
[23]
  EC50: 8.49 µM (active)
[3]
  AC50: 3.81 µM (active)

## O=C1c2ccc3c4c(ccc(c24)C(=O)N1CCCCO)C(=O)N(CCCCO)C3=O
[24]
  EC50: > 120 µM (not active)
[25]
  IC50: 2.96 µM (active)
[26]
  EC50: 13.6 µM (active)
[27]
  IC50: 1.99 µM (active)
[28]
  EC50: 3.4 µM (active)
[29]
  EC50: 2.25 µM (active)
[30]
  EC50: 4.23 µM (active)
[31]
  CC50: 5.55 µM (active)
[32]
  IC50: > 100 µM (active)
[33]
  IC50: > 66 µM (inactive)
[34]
  IC50: 23.8 µM (inactive)

## C[C@H]1COc2c(N3CCN(C)CC3)c(F)cc3c(=O)c(C(=O)O)cn1c23 [LEVOFLOXACIN]
[35]
  EC50: 2.1 µM (active)
[36]
  EC50: 0.911 µM (active)
[37]
  AC50: 41 µM (active)
